This note sets out measurements from patent publication US8445509B2, “Fused heterocyclic derivatives and use thereof” (Takeda Pharmaceutical Company Limited, priority 2008, dated 2013).

Test [1] deals with Human blood cell cancer cell line MV-4-11. Description: Human blood cell cancer cell line MV-4-11 growth inhibitory test. It counts as cell-based. As to conditions: MV4-11, 72 h, culture for 3 days; for inhibition at 1 µM: 1 μM test substance, read-out: inhibitory rate (%) at 1 μM.
The target of test [2] is T1, FLT3 intracellular domain protein (Homo sapiens, UniProt P36888).
T1 construct: 7.5 ng/ml of FLT3 intracellular domain protein (Millipore); purchased Millipore
T1 sequence (P36888 564-993 limits assumed): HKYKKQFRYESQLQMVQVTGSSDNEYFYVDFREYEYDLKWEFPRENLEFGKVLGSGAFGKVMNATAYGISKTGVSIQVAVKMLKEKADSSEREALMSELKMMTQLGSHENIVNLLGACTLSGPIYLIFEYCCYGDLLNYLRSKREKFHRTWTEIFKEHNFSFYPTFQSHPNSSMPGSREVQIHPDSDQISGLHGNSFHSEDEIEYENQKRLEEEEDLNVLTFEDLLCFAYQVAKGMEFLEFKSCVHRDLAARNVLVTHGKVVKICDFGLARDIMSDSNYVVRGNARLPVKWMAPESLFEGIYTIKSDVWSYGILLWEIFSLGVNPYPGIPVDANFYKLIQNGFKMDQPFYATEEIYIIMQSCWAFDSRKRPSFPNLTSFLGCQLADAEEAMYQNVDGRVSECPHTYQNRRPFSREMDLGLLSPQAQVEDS
Description: Fms Like Tyrosine Kinase 3 (FLT3) kinase inhibitory activity (AlphaScreen). Format: biochemical. Put shortly:
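FLT3 intracellular domain (7.5 ng/ml) and biotin-poly-Glu:Tyr (250 ng/mL), each as added, were preincubated 5 min with compound in Tris pH 7.5 with Mg²⁺, Mn²⁺, DTT and Tween-20. ATP was added (5 μM) for 10 min at 25 °C, then EDTA stop with streptavidin donor/anti-phosphotyrosine acceptor beads for 16 h. % inhibition was calculated against the no-compound control and the no-compound/no-ATP blank.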
In general terms: In Alpha technology, singlet oxygen from a donor bead excites a nearby acceptor bead.

The test system of test [3] is Human gastric cancer cell line MKN-45. Description: Human gastric cancer cell line MKN-45 growth inhibitory test. It counts as cell-based. The following applies: MKN-45, 72 h, culture for 3 days; for inhibition at 1 µM: 1 μM test substance, read-out: inhibitory rate (%) at 1 μM; for IC50: read-out: IC50 value. An outline of the steps: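 MKN-45 cells plated at 3000/well in RPMI1640 with 0.3% FBS, then exposed to test substance for 3 days at 37 °C. Viability read by CCK-8 absorbance at 450 nm; IC50 from variable-slope sigmoidal fit, with DMSO as 100% growth and 10 µM reference c-Met inhibitor as 0% growth.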

Each structure is given as a SMILES string.

The term IC50 denotes the concentration that gives 50% inhibition. For the molecule `Cc1ccc(C(=O)Nc2ccc(Oc3ccc4nc(NC(=O)C5CC5)cn4c3)cn2)c(=O)n1-c1ccc(F)cc1` [Example 60, N-[5-({2-[(cyclopropylcarbonyl)amino]imidazo[1,2-a]pyridin-6-yl}oxy)pyridin-2-yl]-1-(4-fluorophenyl)-6-methyl-2-oxo-1,2-dihydropyridine-3-carboxamide], the inhibition at 1 µM in test [1] is ≥ 90%; in test [3], ≥ 80%. Moreover, the IC50 in test [1], in test [2] and in test [3] was ≤ 1000 nM throughout.

For the molecule `Cc1ccc(C(=O)Nc2ccc(Oc3ccc4nc(NC(=O)C5CC5)cn4c3)cn2)[n+]([O-])c1-c1ccc(F)cc1` [Example 61, N-[5-({2-[(cyclopropylcarbonyl)amino]imidazo[1,2-a]pyridin-6-yl}oxy)pyridin-2-yl]-6-(4-fluorophenyl)-5-methylpyridine-2-carboxamide 1-oxide], the inhibition at 1 µM is ≥ 90% in test [1] and ≥ 80% in test [3]. For the same molecule, the IC50 in test [1], in test [2] and in test [3] was ≤ 1000 nM throughout.

For the molecule `Cc1cc(C(=O)Nc2ccc(Oc3ccc4nc(NC(=O)C5CC5)cn4c3)c(F)c2)c(=O)n(-c2ccc(F)cc2)c1` [Example 66, N-[4-({2-[(cyclopropylcarbonyl)amino]imidazo[1,2-a]pyridin-6-yl}oxy)-3-fluorophenyl]-1-(4-fluorophenyl)-5-methyl-2-oxo-1,2-dihydropyridine-3-carboxamide], the inhibition at 1 µM in test [1] was ≥ 90%; in test [3] it was ≥ 80%. The IC50 in test [1], in test [2] and in test [3] was ≤ 1000 nM throughout.

Take `Cc1cc(C(=O)Nc2ccc(Oc3ccc4nc(NC(=O)C5CC5)cn4c3)c(F)c2)c(=O)n(-c2ccc(F)cc2)c1C` [Example 70, N-[4-({2-[(cyclopropylcarbonyl)amino]imidazo[1,2-a]pyridin-6-yl}oxy)-3-fluorophenyl]-1-(4-fluorophenyl)-5,6-dimethyl-2-oxo-1,2-dihydropyridine-3-carboxamide]: the values for the inhibition at 1 µM in test [1] and in test [3] were ≥ 90% and ≥ 80%, respectively. Besides, the IC50 in test [1], in test [2] and in test [3] was ≤ 1000 nM throughout.

Regarding `Cc1ccc(C(=O)Nc2ccc(Oc3ccc4nc(NC(=O)C5CC5)cn4c3)cc2)[n+]([O-])c1-c1ccc(F)cc1` [Example 72, N-[4-({2-[(cyclopropylcarbonyl)amino]imidazo[1,2-a]pyridin-6-yl}oxy)phenyl]-6-(4-fluorophenyl)-5-methylpyridine-2-carboxamide 1-oxide], the inhibition at 1 µM is ≥ 90% in test [1] and ≥ 80% in test [3]. Besides, the IC50 in test [1], in test [2] and in test [3] was ≤ 1000 nM throughout.

Turning to `Cc1ccc(C(=O)Nc2ccc(Oc3ccc4nc(NC(=O)C5CC5)cn4c3)c(F)c2)c(=O)n1-c1cccc(F)c1` [Example 75, N-[4-({2-[(cyclopropylcarbonyl)amino]imidazo[1,2-a]pyridin-6-yl}oxy)-3-fluorophenyl]-1-(3-fluorophenyl)-6-methyl-2-oxo-1,2-dihydropyridine-3-carboxamide], the inhibition at 1 µM is ≥ 90% in test [1] and ≥ 80% in test [3]. For the same molecule, the IC50 in test [1], in test [2] and in test [3] was ≤ 1000 nM each time.

In the case of `Cc1ccc(C(=O)Nc2ccc(Oc3ccn4nc(NC(=O)C5CC5)nc4c3)c(F)c2)c(=O)n1-c1ccc(F)cc1` [Example 76, N-[4-({2-[(cyclopropylcarbonyl)amino][1,2,4]triazolo[1,5-a]pyridine-7-yl}oxy)-3-fluorophenyl]-1-(4-fluorophenyl)-6-methyl-2-oxo-1,2-dihydropyridine-3-carboxamide], the values for the inhibition at 1 µM in test [1] and in test [3] were ≥ 90% and ≥ 80%, respectively. Further, the IC50 in test [1], in test [2] and in test [3] was ≤ 1000 nM throughout.

With `Cc1c(C(=O)Nc2ccc(Oc3ccc4nc(NC(=O)C5CC5)cn4c3)c(F)c2)c(=O)n(-c2ccc(F)cc2)n1C` [Example 77, N-[4-({2-[(cyclopropylcarbonyl)amino]imidazo[1,2-a]pyridin-6-yl}oxy)-3-fluorophenyl]-2-(4-fluorophenyl)-1,5-dimethyl-3-oxo-2,3-dihydro-1H-pyrazole-4-carboxamide], the inhibition at 1 µM in test [1] is ≥ 90%; in test [3] it was ≥ 80%. The IC50 in test [1], in test [2] and in test [3] was ≤ 1000 nM throughout.

On to `CC1CCN(C(=O)Nc2ccc(Oc3ccc4nc(NC(=O)C5CC5)cn4c3)c(F)c2)C(=O)N1c1ccc(F)cc1` (centres unmarked) [Example 80, N-[4-({2-[(cyclopropylcarbonyl)amino]imidazo[1,2-a]pyridin-6-yl}oxy)-3-fluorophenyl]-3-(4-fluorophenyl)-4-methyl-2-oxotetrahydropyrimidine-1(2H)-carboxamide], for which the inhibition at 1 µM was ≥ 90% in test [1] and ≥ 80% in test [3]. In addition, the half-maximal inhibitory concentration (IC50) in test [1], in test [2] and in test [3] was ≤ 1000 nM each time.

In the case of `CC1=C(c2ccc(F)cc2)C(=O)N(C(=O)Nc2ccc(Oc3ccc4nc(NC(=O)C5CC5)cn4c3)c(F)c2)CC1` [Example 81, N-[4-({2-[(cyclopropylcarbonyl)amino]imidazo[1,2-a]pyridin-6-yl}oxy)-3-fluorophenyl]-5-(4-fluorophenyl)-4-methyl-6-oxo-3,6-dihydropyridine-1(2H)-carboxamide], the values for the inhibition at 1 µM in test [1] and in test [3] were ≥ 90% and ≥ 80%, respectively. The half-maximal inhibitory concentration (IC50) in test [1], in test [2] and in test [3] was ≤ 1000 nM each time.

Turning to `Cc1cc(C)n(-c2ccc(F)cc2)c(=O)c1C(=O)Nc1ccc(Oc2ccc3nc(NC(=O)C4CC4)cn3c2)c(F)c1` [Example 82, N-[4-({2-[(cyclopropylcarbonyl)amino]imidazo[1,2-a]pyridin-6-yl}oxy)-3-fluorophenyl]-1-(4-fluorophenyl)-4,6-dimethyl-2-oxo-1,2-dihydropyridine-3-carboxamide], the inhibition at 1 µM is ≥ 90% in test [1] and ≥ 80% in test [3]. For the same molecule, the IC50 in test [1], in test [2] and in test [3] was ≤ 1000 nM each time.

Take `Cc1ccc(C(=O)Nc2ccc(Oc3ccc4nc(NC(=O)C5CC5)cn4c3)cc2F)[n+]([O-])c1-c1ccc(F)cc1` [Example 84, N-[4-({2-[(cyclopropylcarbonyl)amino]imidazo[1,2-a]pyridin-6-yl}oxy)-2-fluorophenyl]-6-(4-fluorophenyl)-5-methylpyridine-2-carboxamide 1-oxide]: the inhibition at 1 µM in test [1] was ≥ 90%; in test [3] it was ≥ 80%. Also, the IC50 in test [1], in test [2] and in test [3] was ≤ 1000 nM each time.

In the case of `Cc1ccc(C(=O)Nc2ccc(Oc3ccc4nc(NC(=O)C5CC5)cn4c3)c(F)c2)[n+]([O-])c1-c1cccc(F)c1` [Example 93, N-[4-({2-[(cyclopropylcarbonyl)amino]imidazo[1,2-a]pyridin-6-yl}oxy)-3-fluorophenyl]-6-(3-fluorophenyl)-5-methylpyridine-2-carboxamide 1-oxide], the inhibition at 1 µM is ≥ 90% in test [1] and ≥ 80% in test [3]. Also, the IC50 in test [1], in test [2] and in test [3] was ≤ 1000 nM in each case.
